# Like-named read-outs stand apart in the source and are kept apart here. Where a SMILES comes first, the peptide text is derived from it. Bridges are numbered along the chain shown (N, C = ends).
# How the values were obtained:
# hα6/α3β4L116Q = molecular target: T1, hα6/α3β4L116Q (Homo sapiens, UniProt P30926+Q15825, L142Q); type: cell-based
# T1 construct: splicing the N-terminal extracellular domain of the α6 subunit with the α3 subunit; mutant made by PCR mutagenesis; host or cells: Xenopus laevis oocytes injected with cRNA
# h[α6S10A/α3]β4 [1] = type: cell-based, human
# h[α6S10A/α3]β4 [2] = molecular target: T2, h[α6S10A/α3]β4 (Homo sapiens, UniProt P30926+P32297+Q15825, S43A); type: cell-based
# T2 construct: formed by splicing the N-terminal extracellular domain of the α6 subunit with the α3 subunit; human nAChR α3 subunit (CHRNA3); expressed in transfected cells; host or cells: Xenopus laevis oocytes injected with cRNA (plasmids from the University of Utah)
# hα6/α3β4Y133H = molecular target: T3, hα6/α3β4Y133H (Homo sapiens, UniProt P30926+Q15825, Y159H); type: cell-based
# T3 construct: splicing the N-terminal extracellular domain of the α6 subunit with the α3 subunit; mutant made by PCR mutagenesis; host or cells: Xenopus laevis oocytes injected with cRNA
# h[α6V32L, K61R/α3]β4 = type: cell-based, human
# h[α6Q14R/α3]β4 [3] = molecular target: T4, h[α6Q14R/α3]β4 (Homo sapiens, UniProt P30926+P32297+Q15825, Q47R); type: cell-based
# T4 construct: formed by splicing the N-terminal extracellular domain of the α6 subunit with the α3 subunit; human nAChR α3 subunit (CHRNA3); expressed in transfected cells; host or cells: Xenopus laevis oocytes injected with cRNA (plasmids from the University of Utah)
# h[α6Q14R/α3]β4 [4] = type: cell-based, human
# hα6/α3β4T65A = molecular target: T5, hα6/α3β4T65A (Homo sapiens, UniProt P30926+Q15825, T91A); type: cell-based
# T5 construct: splicing the N-terminal extracellular domain of the α6 subunit with the α3 subunit; mutant made by PCR mutagenesis; host or cells: Xenopus laevis oocytes injected with cRNA
# h[α6N110D/α3]β4 = molecular target: T6, h[α6N110D/α3]β4 (Homo sapiens, UniProt P30926+P32297+Q15825, N143D); type: cell-based
# T6 construct: formed by splicing the N-terminal extracellular domain of the α6 subunit with the α3 subunit; fusion partner: remainder of the human α3 subunit (CHRNA3); expressed in transfected cells; host or cells: Xenopus laevis oocytes injected with cRNA
# h[α6R63C/α3]β4 [5] = type: cell-based, human
# h[α6R63C/α3]β4 [6] = molecular target: T7, h[α6R63C/α3]β4 (Homo sapiens, UniProt P30926+P32297+Q15825, R96C); type: cell-based
# T7 construct: formed by splicing the N-terminal extracellular domain of the α6 subunit with the α3 subunit; human nAChR α3 subunit (CHRNA3); expressed in transfected cells; host or cells: Xenopus laevis oocytes injected with cRNA (plasmids from the University of Utah)
# hα6/α3β4R70C = molecular target: T8, hα6/α3β4R70C (Homo sapiens, UniProt P30926+Q15825, R96C); type: cell-based
# T8 construct: splicing the N-terminal extracellular domain of the α6 subunit with the α3 subunit; mutant made by PCR mutagenesis; host or cells: Xenopus laevis oocytes injected with cRNA
# hα6/α3β4M160K = molecular target: T9, hα6/α3β4M160K (Homo sapiens, UniProt P30926+Q15825, M186K); type: cell-based
# T9 construct: formed by splicing the N-terminal extracellular domain of the α6 subunit with the α3 subunit; human nAChR α3 subunit (CHRNA3); expressed in transfected cells; host or cells: Xenopus laevis oocytes injected with cRNA (plasmids from the University of Utah)
# h[α6M67T/α3]β4 [7] = molecular target: T10, h[α6M67T/α3]β4 (Homo sapiens, UniProt P30926+P32297+Q15825, M100T); type: cell-based
# T10 construct: formed by splicing the N-terminal extracellular domain of the α6 subunit with the α3 subunit; fusion partner: remainder of the human α3 subunit (CHRNA3); expressed in transfected cells; host or cells: Xenopus laevis oocytes injected with cRNA
# h[α6M67T/α3]β4 [8] = type: cell-based, human
# hα6/α3β4V53I = molecular target: T11, hα6/α3β4V53I (Homo sapiens, UniProt P30926+Q15825, V79I); type: cell-based
# T11 construct: splicing the N-terminal extracellular domain of the α6 subunit with the α3 subunit; mutant made by PCR mutagenesis; host or cells: Xenopus laevis oocytes injected with cRNA
# [9] = molecular target: T12, h[α6V32L, K61R/α3]β4L107V,V115I (Homo sapiens, UniProt P30926+P32297+Q15825, K94R/L133V/V141I/V65L); assay: cell-based
# T12 construct: formed by splicing the N-terminal extracellular domain of the α6 subunit with the α3 subunit; fusion partner: remainder of the human α3 subunit (CHRNA3); expressed in transfected cells; host or cells: Xenopus laevis oocytes injected with cRNA
# hα6/α3β4S165I = molecular target: T13, hα6/α3β4S165I (Homo sapiens, UniProt P30926+Q15825, S191I); type: cell-based
# T13 construct: formed by splicing the N-terminal extracellular domain of the α6 subunit with the α3 subunit; human nAChR α3 subunit (CHRNA3); expressed in transfected cells; host or cells: Xenopus laevis oocytes injected with cRNA (plasmids from the University of Utah)
# hα6/α3β4K31R = molecular target: T14, hα6/α3β4K31R (Homo sapiens, UniProt P30926+Q15825, K57R); type: cell-based
# T14 construct: splicing the N-terminal extracellular domain of the α6 subunit with the α3 subunit; mutant made by PCR mutagenesis; host or cells: Xenopus laevis oocytes injected with cRNA
# rα6/α3β4 = molecular target: T15, rα6/α3β4 (Rattus norvegicus, UniProt P04757+P12392+P43143); type: cell-based
# T15 construct: formed by splicing the N-terminal extracellular domain of the α6 subunit with the α3 subunit; fusion partner: remainder of the rat α3 subunit (Chrna3); expressed in transfected cells; host or cells: Xenopus laevis oocytes injected with cRNA
# hα6/α3β4T161S = molecular target: T16, hα6/α3β4T161S (Homo sapiens, UniProt P30926+Q15825, T187S); type: cell-based
# T16 construct: formed by splicing the N-terminal extracellular domain of the α6 subunit with the α3 subunit; human nAChR α3 subunit (CHRNA3); expressed in transfected cells; host or cells: Xenopus laevis oocytes injected with cRNA (plasmids from the University of Utah)
# h[α6N58K/α3]β4 = molecular target: T17, h[α6N58K/α3]β4 (Homo sapiens, UniProt P30926+P32297+Q15825, N91K); type: cell-based
# T17 construct: formed by splicing the N-terminal extracellular domain of the α6 subunit with the α3 subunit; human nAChR α3 subunit (CHRNA3); expressed in transfected cells; host or cells: Xenopus laevis oocytes injected with cRNA (plasmids from the University of Utah)
# [10] = read-out: inhibition of the current response to 100 μM ACh
# T12 sequence (Q15825+P32297 fused with the stated changes): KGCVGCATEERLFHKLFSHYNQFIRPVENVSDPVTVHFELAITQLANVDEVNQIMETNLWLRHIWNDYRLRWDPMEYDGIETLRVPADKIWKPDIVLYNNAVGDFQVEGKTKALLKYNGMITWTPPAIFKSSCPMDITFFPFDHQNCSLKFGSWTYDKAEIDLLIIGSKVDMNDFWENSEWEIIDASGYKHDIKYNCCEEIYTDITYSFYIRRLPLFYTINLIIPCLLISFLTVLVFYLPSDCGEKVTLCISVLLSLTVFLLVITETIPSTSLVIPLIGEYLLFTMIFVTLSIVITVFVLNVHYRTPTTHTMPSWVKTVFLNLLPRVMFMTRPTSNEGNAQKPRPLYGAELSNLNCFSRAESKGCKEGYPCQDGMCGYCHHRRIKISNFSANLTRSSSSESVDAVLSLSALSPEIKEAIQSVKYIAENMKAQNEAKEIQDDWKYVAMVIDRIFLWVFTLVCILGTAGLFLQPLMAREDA
# T12 sequence (P30926 22-498 L133V/V141I): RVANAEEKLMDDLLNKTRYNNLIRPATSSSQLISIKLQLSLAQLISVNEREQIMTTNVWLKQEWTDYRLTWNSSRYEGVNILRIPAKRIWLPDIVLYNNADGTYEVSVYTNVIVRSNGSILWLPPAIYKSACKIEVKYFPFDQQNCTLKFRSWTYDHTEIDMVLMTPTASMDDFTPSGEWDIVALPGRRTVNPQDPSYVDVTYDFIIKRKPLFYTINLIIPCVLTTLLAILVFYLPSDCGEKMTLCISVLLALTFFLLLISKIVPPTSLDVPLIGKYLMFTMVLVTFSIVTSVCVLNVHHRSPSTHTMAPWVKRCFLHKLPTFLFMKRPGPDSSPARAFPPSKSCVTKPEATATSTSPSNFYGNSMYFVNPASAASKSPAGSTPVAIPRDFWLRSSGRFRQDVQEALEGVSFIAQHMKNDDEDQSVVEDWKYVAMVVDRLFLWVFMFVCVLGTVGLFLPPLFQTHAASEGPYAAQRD
# T6 sequence (Q15825+P32297 fused with the stated changes): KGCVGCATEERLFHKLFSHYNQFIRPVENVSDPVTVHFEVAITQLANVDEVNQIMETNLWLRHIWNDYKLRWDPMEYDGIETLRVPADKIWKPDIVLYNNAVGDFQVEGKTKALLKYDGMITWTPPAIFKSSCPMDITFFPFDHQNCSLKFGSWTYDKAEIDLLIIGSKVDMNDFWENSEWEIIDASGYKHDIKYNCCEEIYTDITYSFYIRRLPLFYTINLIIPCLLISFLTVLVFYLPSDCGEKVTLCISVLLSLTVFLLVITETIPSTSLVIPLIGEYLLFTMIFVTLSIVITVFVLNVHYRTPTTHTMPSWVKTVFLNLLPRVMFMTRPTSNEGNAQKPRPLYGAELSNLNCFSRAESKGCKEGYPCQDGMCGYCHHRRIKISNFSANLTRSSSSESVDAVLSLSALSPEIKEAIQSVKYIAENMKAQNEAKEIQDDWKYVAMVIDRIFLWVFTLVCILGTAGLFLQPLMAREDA
# T6 sequence (P30926 22-498): as the sequence (P30926 22-498 L133V/V141I) above, with V112L, I120V counted along it
# T17 sequence (Q15825+P32297 fused with the stated changes): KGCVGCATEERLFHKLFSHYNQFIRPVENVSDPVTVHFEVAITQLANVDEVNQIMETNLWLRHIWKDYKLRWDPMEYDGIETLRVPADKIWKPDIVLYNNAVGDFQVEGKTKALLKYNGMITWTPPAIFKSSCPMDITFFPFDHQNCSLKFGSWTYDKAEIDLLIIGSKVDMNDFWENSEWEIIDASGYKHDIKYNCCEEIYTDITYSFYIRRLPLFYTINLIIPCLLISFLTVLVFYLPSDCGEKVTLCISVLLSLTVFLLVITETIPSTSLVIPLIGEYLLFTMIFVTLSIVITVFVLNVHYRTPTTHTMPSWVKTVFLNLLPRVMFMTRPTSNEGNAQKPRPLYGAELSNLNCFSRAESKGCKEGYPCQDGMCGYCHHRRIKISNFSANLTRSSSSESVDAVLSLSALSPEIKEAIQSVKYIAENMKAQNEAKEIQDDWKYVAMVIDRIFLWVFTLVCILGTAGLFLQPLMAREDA
# T17 sequence (P30926 22-498): as the sequence (P30926 22-498 L133V/V141I) above, with V112L, I120V counted along it
# T8 sequence (Q15825 26-239 limits assumed, stated change not applied): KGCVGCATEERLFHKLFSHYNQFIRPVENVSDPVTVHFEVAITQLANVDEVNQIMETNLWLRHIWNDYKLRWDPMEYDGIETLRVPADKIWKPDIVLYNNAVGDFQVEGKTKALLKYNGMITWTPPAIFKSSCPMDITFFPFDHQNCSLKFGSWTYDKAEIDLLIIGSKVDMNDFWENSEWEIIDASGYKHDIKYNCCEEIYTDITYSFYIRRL
# T8 sequence (P30926 22-498 R96C): as the sequence (P30926 22-498 L133V/V141I) above, with R75C, V112L, I120V counted along it
# T1 sequence (Q15825 26-239 limits assumed): as the sequence (Q15825 26-239 limits assumed, stated change not applied) above
# T1 sequence (P30926 22-498 L142Q): as the sequence (P30926 22-498 L133V/V141I) above, with V112L, I120V, L121Q counted along it
# T9 sequence (Q15825 26-239 limits assumed, stated change not applied): as the sequence (Q15825 26-239 limits assumed, stated change not applied) above
# T9 sequence (P30926 22-498 M186K): as the sequence (P30926 22-498 L133V/V141I) above, with V112L, I120V, M165K counted along it
smiles,measurement,setting,value
"CC(C)C[C@@H]1NC(=O)[C@H](CC(=O)O)NC(=O)[C@@H]2CCCN2C(=O)[C@H](Cc2c[nH]cn2)NC(=O)[C@H](CCCCN)NC(=O)[C@H](CC(N)=O)NC(=O)[C@H](CCCNC(=N)N)NC(=O)[C@@H]2CSSC[C@H](NC(=O)CN)C(=O)N[C@@H](CSSC[C@@H](C(N)=O)NC1=O)C(=O)N[C@@H](CO)C(=O)N[C@@H](CC(=O)O)C(=O)N1CCC[C@H]1C(=O)N1CCC[C@H]1C(=O)N2 [TxIB] (H-GCCSDPPCRNKHPDLC-NH2; disulfide 2-8, 3-16)",Hill Slope,hα6/α3β4L116Q,0.8 (0.7–0.9)
same,Ratio (change in TxIB IC50 relative to hα6/α3β4),hα6/α3β4L116Q,1.7
same,Ratio (change in TxIB IC50 relative to hα6/α3β4),h[α6S10A/α3]β4 [1],1.2
same,Hill Slope,h[α6S10A/α3]β4 [2],0.8 (0.7–0.9)
same,Hill Slope,hα6/α3β4Y133H,0.8 (0.7–1.0)
same,Ratio (change in TxIB IC50 relative to hα6/α3β4),hα6/α3β4Y133H,1.3
same,Ratio (change in TxIB IC50 relative to hα6/α3β4),"h[α6V32L, K61R/α3]β4",8.1
same,time to full restoration of currents blocked by TxIB,"h[α6V32L, K61R/α3]β4",≤ 1 min
same,IC50,"h[α6V32L, K61R/α3]β4; read-out: IC50",4.3 µM
same,IC50,"h[α6V32L, K61R/α3]β4; read-out: IC50 (95% CI)",4.34 µM
same,activity,"h[α6V32L, K61R/α3]β4; [10]",31.9 ± 8.05%
same,Hill Slope,h[α6Q14R/α3]β4 [3],0.9 (0.7–1.2)
same,Ratio (change in TxIB IC50 relative to hα6/α3β4),h[α6Q14R/α3]β4 [4],1
same,Hill Slope,hα6/α3β4T65A,0.9 (0.8–1.0)
same,Ratio (change in TxIB IC50 relative to hα6/α3β4),hα6/α3β4T65A,1
same,Hill Slope,h[α6N110D/α3]β4,0.9 (0.8–1.0)
same,Ratio (change in TxIB IC50 relative to hα6/α3β4),h[α6N110D/α3]β4,1.6
same,Ratio (change in TxIB IC50 relative to hα6/α3β4),h[α6R63C/α3]β4 [5],0.9
same,Hill Slope,h[α6R63C/α3]β4 [6],0.9 (0. 8–1.1)
same,Hill Slope,hα6/α3β4R70C,0.8 (0.7–1.0)
same,Ratio (change in TxIB IC50 relative to hα6/α3β4),hα6/α3β4R70C,0.9
same,Hill Slope,hα6/α3β4M160K,0.9 (0.7–1.1)
same,Ratio (change in TxIB IC50 relative to hα6/α3β4),hα6/α3β4M160K,1.5
same,Hill Slope,h[α6M67T/α3]β4 [7],0.9 (0.7–1.0)
same,Ratio (change in TxIB IC50 relative to hα6/α3β4),h[α6M67T/α3]β4 [8],1.1
same,Hill Slope,hα6/α3β4V53I,0.8 (0.7–0.9)
same,Ratio (change in TxIB IC50 relative to hα6/α3β4),hα6/α3β4V53I,1.1
same,Hill Slope,[9],0.8 (0.6–0.9)
same,Ratio (change in TxIB IC50 relative to hα6/α3β4),[9],42
same,time to full restoration of currents blocked by TxIB,[9],≤ 1 min
same,activity at 10 µM,[9]; [10],60.2 ± 8.66%
same,Hill Slope,hα6/α3β4S165I,0.7 (0.6–0.9)
same,Ratio (change in TxIB IC50 relative to hα6/α3β4),hα6/α3β4S165I,1
same,Hill Slope,hα6/α3β4K31R,0.8 (0.7–0.9)
same,Ratio (change in TxIB IC50 relative to hα6/α3β4),hα6/α3β4K31R,2.2
same,blocking effect,rα6/α3β4,almost no blocking effect
same,Hill Slope,hα6/α3β4T161S,0.8 (0.6–0.9)
same,Ratio (change in TxIB IC50 relative to hα6/α3β4),hα6/α3β4T161S,1.8
same,Hill Slope,h[α6N58K/α3]β4,0.9 (0.8–1.1)
same,Ratio (change in TxIB IC50 relative to hα6/α3β4),h[α6N58K/α3]β4,0.9

# Reference: paper PMC10218596 (International Journal of Molecular Sciences, 2023)
